pEC50: −log10 of the molar value. Starred links: 1 amine or outer side, 2 acyl side, 3 side chain; linkers in the order of their positions; H or OH if unused. Positions of bridges follow the written chain, without caps; N, C: chain ends. Non-standard residues stand in square brackets, D forms with d. Residues, ends and D or L forms follow the SMILES beside them. No end group written: not given here. *: point of attachment. Leu(3R-OH,Nα-propionyl) = CCC(=O)N[C@H](C(=O)*)[C@H](O)C(C)C; X1 = CC(C)[C@@H](O[*:3])[C@H](N[*:1])C(=O)[*:2]; NMeT = CN[C@H](C(=O)O)[C@@H](C)O; dPhLac = O=C(O)[C@H](O)Cc1ccccc1; NMeA = CN[C@@H](C)C(=O)O; NMeDha = C=C(NC)C(=O)O
Columns and labels:
[1] = target: T1, AT1R (Homo sapiens, UniProt P30556); test: PKN-based RhoA activation BRET assay (PKN-crib-RlucII/rGFP-CAAX) with AT1R; assay type: cell-based
T1 construct: expressed in transfected cells; host or cells: HEK293SL
T1 sequence (P30556 1-359): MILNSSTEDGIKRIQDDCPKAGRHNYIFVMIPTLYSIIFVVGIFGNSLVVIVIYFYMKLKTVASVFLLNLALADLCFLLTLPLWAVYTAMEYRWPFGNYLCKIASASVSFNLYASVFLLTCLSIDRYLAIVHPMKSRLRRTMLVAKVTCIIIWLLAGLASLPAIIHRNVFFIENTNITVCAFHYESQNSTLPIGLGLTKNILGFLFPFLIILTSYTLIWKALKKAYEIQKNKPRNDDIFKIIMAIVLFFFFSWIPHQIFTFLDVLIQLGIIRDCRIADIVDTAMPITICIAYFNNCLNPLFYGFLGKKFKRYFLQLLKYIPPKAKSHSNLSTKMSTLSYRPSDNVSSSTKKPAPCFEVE
Procedure: (§1) BRET measurements for FIGS. 1B to 9D, 25D to 25F. The following day of transfection, cells were detached and replated onto poly-ornithine coated white 96-well plate at a density of 25,000 cells per well. The next day, cells were washed once with pre-warmed Tyrode's buffer (140 mM NaCl, 2.7 mM KCl, 1 mM CaCl2, 12 mM NaHCO3, 5.6 mM D-glucose, 0.5 mM MgCl2, 0.37 mM NaH2PO4, 25 mM HEPES, pH 7.4), and then stimulated with either various concentrations of ligands in Tyrode's buffer for the indicated time, or single concentration of ligands for various times at 37° C. For recycling experiment, after stimulating the cells with the ligands for 30 min at 37° C., they were washed either three times with ice-cold Tyrode's buffer or once with Tyrode's buffer/three times with acid (50 mM sodium citrate, pH 4.0)/two times with Tyrode's buffer. All the washing steps were performed on ice. […] The cell-permeable substrate, coelenterazine 400a was added at a final concentration of 5 μM in Tyrode's buffer 3-4 min before BRET measurements. […] The BRET signal was determined by calculating the ratio of the light intensity emitted by the GFP10 or rGFP over the light intensity emitted by the RlucII. All the BRET measurements were performed in triplicate at 37° C.
PKN-based RhoA activation assay. For FIGS. 25B-D, HEK293SL cells were grown in DMEM supplemented with 6% fetal bovine serum (FBS) and 20 μg/ml gentamycin, at 37° C. Cells were seeded at a density of 7.5×10^5 cells per 100 mm dishes and were transiently transfected the next day with constructs encoding AT1R (3 μg) along with PKN-crib-RlucII (90 ng) and rGFP-CAAX (480 ng) using calcium phosphate method as described previously. After 24 h, cells were detached and seeded onto poly-ornithine-coated 96-well white plates at a density of 25 000 cells per well in media. The next day, cells were washed once with Tyrode's buffer and left in 80 μl of Tyrode's buffer at 37° C. When indicated, cells were treated with Ubo-Qic 100 nM for 30 min or C3 toxin for 3 μg/ml (in FIG. 25I), 4 hours at 37° C. Cell stimulation and BRET measurements were done at RT. BRET signals were monitored by addition of Coel-400a to a final concentration of 5 μM using a Synergy2 (BioTek®) microplate reader. […] For FIG. 25B, a transfection mix of 200 ng of TPαR, 20 ng PKN-RlucII, 600 ng CAAX-rGFP, complemented to 2 μg with ssDNA and PEI at a ratio of PEI:DNA of 3:1, is added to 3 ml of Hek293SL (350 000 cells/ml). Cells were seeded on poly-D-lysine pretreated plates. […] Cells were stimulated for 2 min with the indicated doses of U46619. […] For FIGS. 25I and J, a transfection mix of 200 ng of TPαR, 20 ng PKN-RlucII, 600 ng CAAX-rGFP, complemented to 2 μg with ssDNA and PEI at a ratio of PEI:DNA of 3:1, is added to 3 ml of Hek293SL (350,000 cells/ml). Cells were seeded on poly-D-lysine pretreated plates. 24 h post-transfection, the Rho inhibitor (CT04; Cytoskeleton, Inc) was added when indicated, overnight at final concentration 2 μg/ml. 48 h post-transfection, cells were washed and preincubated in Tyrode +1 mM CaCl2 at 37° C. for 60 min then treated, as indicated, with 100 nM of U46619 or 1 μg/ml of Rho activator II (CN03; Cytoskeleton, Inc) for 1 min at 37° C. […] BRET was measured at 37° C., using a Tristar Microplate Reader (Berthold Technologies).

[2] = target: T2, AT1R (Homo sapiens, UniProt P30556); test: AT1R endocytosis BRET at plasma membrane (AT1R-RlucII/lyn-rGFP); assay type: cell-based; parameters: signal peptide-Flag-human AT1R (spFlag-AT1R); signal peptide (N); expressed in transfected cells; host or cells: HEK293SL (HEK293 for the screen)
T2 sequence (P30556 with tags, fused parts or gaps): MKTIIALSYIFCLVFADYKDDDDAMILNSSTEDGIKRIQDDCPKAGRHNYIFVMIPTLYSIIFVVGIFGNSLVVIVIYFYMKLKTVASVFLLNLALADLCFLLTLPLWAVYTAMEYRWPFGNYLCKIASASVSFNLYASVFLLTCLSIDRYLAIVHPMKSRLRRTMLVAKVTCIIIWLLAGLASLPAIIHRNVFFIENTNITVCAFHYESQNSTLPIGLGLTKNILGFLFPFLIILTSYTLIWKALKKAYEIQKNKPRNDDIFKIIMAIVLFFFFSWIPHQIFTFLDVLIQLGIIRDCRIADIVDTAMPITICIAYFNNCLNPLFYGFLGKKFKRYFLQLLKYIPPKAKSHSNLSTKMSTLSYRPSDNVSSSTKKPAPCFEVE
Procedure: as §1
Data Analysis. Estimation of the t1/2 and the EC50 values for ligand-mediated endocytosis were calculated using the GraphPad® Prism curve fitting program The curves presented throughout this study, representing the best fits, and were generated using this GraphPad® Prism program as well.

Compound	effect on AngII-mediated BRET increase (Rho sensor) ([1]; 100 nM Ubo, 100 nM AngII 70 s)	effect on AngII-dependent AT1R internalization ([2]; 100 nM Ubo, 30 min pre-incubation)	impact of Gq inhibition on ligand-mediated Rho activation ([1]; 100 nM Ubo-Qic 30 min, ligand 4 min)	pEC50 ([2]; FIG. 6B, 30 min, read-out: potency to promote AT1R internalization)
C=C1C(=O)N[C@@H](C)C(=O)N(C)[C@@H](C)C(=O)N[C@@H]([C@H](OC(=O)[C@@H](NC(=O)CC)[C@H](O)C(C)C)C(C)C)C(=O)N(C)[C@@H]([C@@H](C)OC)C(=O)O[C@H](C(C)C)[C@H](NC(C)=O)C(=O)O[C@H](Cc2ccccc2)C(=O)N1C [Ubo-QIC] (Ac-[X1][dPhLac][NMeDha]A[NMeA][X1](Leu(3R-OH,Nα-propionyl))[NMeT](Me); ester 1-C)	partially blocked	did not prevent		
DRVYVHPG [DVG, [Asp^1,Val^5, Gly^8]-AngII]			did not affect	7.12

— patent US10584159B2, “Renilla based biosensors for monitoring biomolecule localization and trafficking in cells” (The Royal Institution for the Advancement of …, priority 2014, dated 2020)
